Among the data in patent US20150011751A1, “NOVEL TRIAZINE DERIVATIVE” (CARNA BIOSCIENCES, INC., priority 2012, published 2015) are IC50 values, retold here.

pIC50: −log10 of the molar value.

Sequence of Dephosphorylated BTK (Q06187 whole entry): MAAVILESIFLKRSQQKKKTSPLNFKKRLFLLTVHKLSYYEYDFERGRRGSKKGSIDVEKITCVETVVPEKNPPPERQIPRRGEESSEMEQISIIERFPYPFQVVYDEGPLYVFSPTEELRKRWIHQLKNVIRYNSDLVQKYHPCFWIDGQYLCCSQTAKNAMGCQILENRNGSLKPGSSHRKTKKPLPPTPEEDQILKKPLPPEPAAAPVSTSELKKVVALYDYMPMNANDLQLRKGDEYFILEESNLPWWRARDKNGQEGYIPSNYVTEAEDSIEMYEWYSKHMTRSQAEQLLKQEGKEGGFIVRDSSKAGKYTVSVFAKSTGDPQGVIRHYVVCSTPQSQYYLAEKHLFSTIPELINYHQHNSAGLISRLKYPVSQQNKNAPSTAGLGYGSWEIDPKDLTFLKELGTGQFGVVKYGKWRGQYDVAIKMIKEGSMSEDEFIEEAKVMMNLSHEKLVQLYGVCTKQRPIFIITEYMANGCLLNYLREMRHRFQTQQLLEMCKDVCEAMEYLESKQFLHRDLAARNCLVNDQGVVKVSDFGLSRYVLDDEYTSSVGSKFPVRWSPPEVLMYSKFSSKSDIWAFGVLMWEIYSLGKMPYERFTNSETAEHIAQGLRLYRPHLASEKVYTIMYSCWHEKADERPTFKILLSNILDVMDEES

The assay concerns the target Dephosphorylated BTK (Homo sapiens, UniProt Q06187). As to the kind of experiment: Test of activity inhibition against dephosphorylated BTK (mobility shift assay).
Turning to `Cc1c(-c2nc(N)nc(Nc3ccc(C(=O)N4CCOCC4)cc3)n2)cccc1N1Cc2cc(C(C)(C)C)sc2C1=O` [Example 42, 5-[3-(4-Amino-6-{[4-(morpholine-4-carbonyl)phenyl]amino}-1,3,5-triazin-2-yl)-2-methylphenyl]-2-(tert-butyl)-4H-thieno[2,3-c]pyrrol-6(5H)-one], the pIC50 was 8.19.

`CN1CCN(C)C(c2ccc(Nc3nc(N)nc(-c4cccc(NC(=O)c5ccc(C(C)(C)C)cc5)c4CO)n3)cc2)C1=O` (centres unmarked) [Example 89, N-[3-(4-Amino-6-{[4-(1,4-dimethyl-3-oxo-piperazin-2-yl)phenyl]ami-no}-1,3,5-triazin-2-yl)-2-(hydroxymethyl)phenyl]-4-(tert-butyl) benzamide]: the pIC50 is 9.22.

On to `CC(C)(C)c1ccc(C(=O)Nc2cccc(-c3nc(N)nc(Nc4ccc(OCCOCCO)cc4)n3)c2CO)cc1` [Example 151, N-{3-[4-Amino-6-({4-[2-(2-hydroxyethoxy)eth-oxy]phenyl}amino)-1,3,5-triazin-2-yl]-2-(hy-droxymethyl)phenyl}-4-(tert-butyl)benzamide], for which the pIC50 is 8.89.

Regarding `COCCOc1ccc(Nc2nc(N)nc(-c3cccc(NC(=O)c4cc5c(s4)CCCC5)c3CO)n2)cc1` [Example 134, N-[3-(4-Amino-6-{[4-(2-methoxyethoxy)phenyl]amino}-1,3,5-triazin-2-yl)-2-(hydroxymeth-yl)phenyl]-4,5,6,7-tetra-hydrobenzo[b]thio-phene-2-carboxamide], the negative-log IC50 (pIC50) is 9.05.

Turning to `Cc1c(NC(=O)c2ccc(C(C)(C)C)cc2)cccc1-c1ncnc(Nc2ccc(C(=O)NCCN(C)C)cc2)n1` [Example 17, 4-(tert-Butyl)-N-(3-{4-[(4-{[2-(dimethylami-no)ethyl]carbamoyl}phe-nyl)amino]-1,3,5-tri-azin-2-yl)-2-methyl-phenyl)benzamide], the negative-log IC50 (pIC50) is 8.29.

In the case of `Nc1nc(Nc2ccc(Cn3cncn3)cc2)nc(-c2cccc(N3CCc4cc(C5CC5)cc(F)c4C3=O)c2CO)n1` [Example 49, 2-{3-[4-({4-[(1H-1,2,4-Triazol-1-yl)methyl]phenyl}amino)-6-amino-1,3,5-triazin-2-yl]-2-(hydroxymethyl)phe-nyl}-6-cyclopropyl-8-fluoro-3,4-dihydroiso-quinolin-1(2H)-one], the negative logarithm of the IC50 (pIC50) is 8.96.

`CC(C)(C)c1ccc(C(=O)Nc2cccc(-c3nc(N)nc(Nc4ccc(O)c(F)c4)n3)c2CO)cc1` [Example 113, N-(3-{4-Amino-6-[(3-fluoro-4-hydroxyphenyl)amino]-1,3,5-triazin-2-yl}-2-(hydroxymeth-yl)phenyl)-4-(tert-butyl)benzamide]: the negative-log IC50 (pIC50) is 8.59.

As for `CC(C)(C)c1ccc(C(=O)Nc2cccc(-c3ncnc(Nc4ccc(C(=O)N5CCOCC5)cc4)n3)c2CO)cc1` [Example 115, 4-(tert-Butyl)-N-[2-(hy-droxymethyl)-3-(4-{[4-(morpholine-4-carbo-nyl)phenyl]amino}-1,3,5-triazin-2-yl)phe-nyl]benzamide], the pIC50 is 8.03.

For the compound `CCC(C)n1cc(Nc2nc(N)nc(-c3cccc(N4CCc5cc(C6CC6)cc(F)c5C4=O)c3CO)n2)cn1` (centres unmarked) [Example 271, 2-[3-(4-Amino-6-{[1-(sec-butyl)-1H-pyrazol-4-yl]amino}-1,3,5-tri-azin-2-yl)-2-(hydroxy-methyl)phenyl]-6-cyclo-propyl-8-fluoro-3,4-dihydroisoquinolin-1 (2H)-one], the negative logarithm of the IC50 (pIC50) was 9.40.

In the case of `CC(C)(C)c1ccc(C(=O)Nc2cccc(-c3nc(N)nc(Nc4ccc(N5CCNCC5)cc4)n3)c2CO)cc1` [Example 126, N-[3-(4-Amino-6-{[4-(piperazin-1-yl)phenyl]amino}-1,3,5-triazin-2-yl)-2-(hydroxymeth-yl)phenyl]-4-(tert-butyl)benzamide], the pIC50 is 9.30.

For `CC(C)(C)c1cc2c(s1)C(=O)N(c1cccc(-c3nc(N)nc(Nc4ccc(N5CCOCC5)cc4)n3)c1CO)C2` [Example 73, 5-(3-{4-Amino-6-[(4-morpho-linophenyl)amino]-1,3,5-triazin-2-yl}-2-(hydroxymethyl)phe-nyl)-2-(tert-butyl)-4H-thieno[2,3-c]pyrrol-6(5H)-one], the negative logarithm of the IC50 (pIC50) was 8.89.

On to `Nc1nc(Nc2cnn(CC(=O)N3CCCC3)c2)nc(-c2cccc(N3CCc4cc(C5CC5)cc(F)c4C3=O)c2CO)n1` [Example 260, 2-{3-[4-Amino-6-({1-[2-oxo-2-(pyrrolidin-1-yl)ethyl]-1H-pyrazol-4-yl}amino)-1,3,5-tri-azin-2-yl]-2-(hydroxy-methyl)phenyl}-6-cyclo-propyl-8-fluoro-3,4-dihydroisoquinolin-1 (2H)-one], for which the pIC50 is 9.05.

For `CC(C)(C)c1ccc(C(=O)Nc2cccc(-c3nc(N)nc(Nc4ccc(N5CCOCC5)nc4)n3)c2CO)cc1` [Example 174, N-(3-{4-Amino-6-[(6-morpholinopyridin-3-yl)amino]-1,3,5-triazin-2-yl}-2-(hydroxymeth-yl)phenyl)-4-(tert-butyl)benzamide], the negative-log IC50 (pIC50) was 8.82.

Consider `CC(C)(C)c1ccc(C(=O)Nc2cccc(-c3nc(N)nc(Nc4ccc(NS(C)(=O)=O)cc4)n3)c2CO)cc1` [Example 112, N-[3-(4-Amino-6-{[4-(meth-ylsulfonamido)phe-nyl]amino}-1,3,5-tria-zin-2-yl)-2-(hydroxymeth-yl)phenyl]-4-(tert-butyl)benzamide], for which the negative logarithm of the IC50 (pIC50) was 8.96.

As to `CC(C)n1cc(Nc2nc(N)nc(-c3cccc(N4CCc5cc(C6CC6)cc(F)c5C4=O)c3CO)n2)cn1` [Example 222, 2-(3-{4-Amino-6-[(1-iso-propyl-1H-pyrazol-4-yl)amino]-1,3,5-tria-zin-2-yl}-2-(hydroxymeth-yl)phenyl)-6-cyclo-propyl-8-fluoro-3,4-di-hydroisoquinolin-1(2H)-one], the negative-log IC50 (pIC50) is 9.40.

As to `Nc1nc(Nc2ccc(N3CCC(O)CC3)cc2)nc(-c2cccc(N3CCc4cc(C5CC5)cc(F)c4C3=O)c2CO)n1` [Example 52, 2-[3-(4-Amino-6-{[4-(4-hydroxypiperidin-1-yl)phenyl]amino}-1,3,5-triazin-2-yl)-2-(hy-droxymethyl)phenyl]-6-cyclopropyl-8-fluoro-3,4-dihydroisoquinolin-1(2H)-one], the pIC50 was 8.80.

As to `Nc1nc(Nc2cnn(CCCO)c2)nc(-c2cccc(N3CCc4cc(C5CC5)cc(F)c4C3=O)c2CO)n1` [Example 225, 2-[3-(4-Amino-6-{[1-(3-hydroxypropyl)-1H-py-razol-4-yl]amino}-1,3,5-triazin-2-yl)-2-(hy-droxymethyl)phenyl]-6-cyclopropyl-8-fluoro-3,4-dihydro-isoquinolin-1(2H)-one], the negative logarithm of the IC50 (pIC50) was 8.92.

Regarding `CC(C)(C)c1ccc(C(=O)Nc2cccc(-c3nc(N)nc(Nc4ccc(N5CCNC(=O)C5)cc4)n3)c2CO)cc1` [Example 114, N-[3-(4-Amino-6-{[4-(3-oxopiperazin-1-yl)phe-nyl]amino}-1,3,5-tri-azin-2-yl)-2-(hydroxy-methyl)phenyl]-4-(tert-butyl)benzamide], the pIC50 was 9.00.

As to `CC(C)(C)c1ccc(C(=O)Nc2cccc(-c3nc(N)nc(Nc4ccc(C(N)=O)cc4)n3)c2CO)cc1` [Example 149, N-(3-{4-Amino-6-[(4-carbamoylphenyl)amino]-1,3,5-triazin-2-yl}-2-(hydroxymethyl)phe-nyl)-4-(tert-butyl) benzamide], the pIC50 was 9.30.

Turning to `CC1CCc2sc(C(=O)Nc3cccc(-c4nc(N)nc(Nc5ccc(N6CCOCC6)cc5)n4)c3CO)cc2C1` (centres unmarked) [Example 139, N-(3-{4-Amino-6-[(4-morpholinophenyl)amino]-1,3,5-triazin-2-yl}-2-(hydroxymethyl)phe-nyl)-5-methyl-4,5,6,7-tetrahydrobenzo[b] thiophene-2-carboxamide], the pIC50 was 8.80.

Regarding `Nc1nc(Nc2cnn(C3CCCC3)c2)nc(-c2cccc(N3CCc4cc(C5CC5)cc(F)c4C3=O)c2CO)n1` [Example 239, 2-(3-{4-Amino-6-[(1-cyclo-pentyl-1H-pyrazol-4-yl)amino]-1,3,5-tri-azin-2-yl}-2-(hydroxy-methyl)phenyl)-6-cyclo-propyl-8-fluoro-3,4-dihydroisoquinolin-1 (2H)-one], the pIC50 was 9.30.

For `CC1(Cn2cc(Nc3nc(N)nc(-c4cccc(N5CCc6cc(C7CC7)cc(F)c6C5=O)c4CO)n3)cn2)COC1` [Example 261, 2-{3-[4-Amino-6-({1-[(3-methyloxetan-3-yl)methyl]-1H-pyrazol-4-yl}amino)-1,3,5-triazin-2-yl]-2-(hydroxymeth-yl)phenyl}-6-cyclopro-pyl-8-fluoro-3,4-di-hydroisoquinolin-1(1H)-one], the negative-log IC50 (pIC50) is 8.82.

For `Nc1nc(Nc2cnn(CC(F)(F)F)c2)nc(-c2cccc(N3CCc4cc(C5CC5)cc(F)c4C3=O)c2CO)n1` [Example 240, 2-[3-(4-Amino-6-{[1-(2,2,2-trifluoroethyl)-1H-pyrazol-4-yl]amino}-1,3,5-triazin-2-yl)-2-(hydroxymethyl)phe-nyl]-6-cyclopropyl-8-fluoro-3,4-dihydroiso-quinolin-1(2H)-one], the negative-log IC50 (pIC50) is 8.96.

Consider `CC(C)(C)c1ccc(C(=O)Nc2cccc(-c3nc(N)nc(Nc4cccc(Cn5cccn5)c4)n3)c2CO)cc1` [Example 161, N-{3-[4-({3-[(1H-Pyra-zol-1-yl)methyl]phenyl}amino)-6-amino-1,3,5-triazin-2-yl]-2-(hy-droxymethyl)phenyl}-4-(tert-butyl)benzamide], for which the pIC50 was 8.96.

`CC(C)(C)c1ccc(C(=O)Nc2cccc(-c3nc(N)nc(Nc4cn[nH]c4)n3)c2CO)cc1` [Example 165, N-(3-{4-[(1H-Pyrazol-4-yl)amino]-6-amino-1,3,5-triazin-2-yl}-2-(hydroxymethyl)phenyl)-4-(tert-butyl)benzamide]: the negative-log IC50 (pIC50) is 9.15.

As to `Nc1nc(Nc2ccc(N3CCNCC3)cc2)nc(-c2cccc(NC(=O)c3cc4c(s3)CCCC4)c2CO)n1` [Example 147, N-[3-(4-Amino-6-{[4-(piperazin-1-yl)phenyl]amino}-1,3,5-triazin-2-yl)-2-(hydroxymeth-yl)phenyl]-4,5,6,7-tetra-hydrobenzo[b]thio-phene-2-carboxamide], the negative logarithm of the IC50 (pIC50) is 9.52.

Usually pIC50 stands for −log10 of the IC50, conventionally taken in molar units.
